In the supplement of paper PMC10307832:

Columns and labels:
Assay in all cases: relative viability (nuclei count vs DMSO), 5 days (fraction); higher = more cells survive
[1] = compound: C1=CC2=NC=CN=C2C=C1/C=C/3\C(=O)NC(=O)S3 + CC(=O)c1c(C)c2cnc(Nc3ccc(N4CCNCC4)cn3)nc2n(C2CCCC2)c1=O [Palbociclib] (partner 0.5 µM)
Summary of the method: (§1)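 One day after seeding in 1536-well plates, lung cancer cell lines were dosed by pin tool. Dosing was either single-drug or a fixed anchor-drug dose plus five library-drug doses (not always all listed) in √10 steps. After 5 days, nuclei were stained in one fix-and-stain step and counted on 4× images, and relative viability is the nuclei count of treated wells over that of vehicle wells, given as the median of duplicate plates.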

BGJ398 + Crizotinib = compound: CCN1CCN(c2ccc(Nc3cc(N(C)C(=O)Nc4c(Cl)c(OC)cc(OC)c4Cl)ncn3)cc2)CC1 [BGJ398] + C[C@@H](Oc1cc(-c2cnn(C3CCNCC3)c2)cnc1N)c1c(Cl)ccc(F)c1Cl [Crizotinib] (partner 1 µM)
Summary of the method: as §1

[2] = compound: C1=CC2=NC=CN=C2C=C1/C=C/3\C(=O)NC(=O)S3 + NC(=O)Nc1cc(-c2cccc(F)c2)sc1C(=O)N[C@H]1CCCNC1 [AZD7762] (partner 0.2 µM)
Summary of the method: as §1

BGJ398 + Decitabine = compound: CCN1CCN(c2ccc(Nc3cc(N(C)C(=O)Nc4c(Cl)c(OC)cc(OC)c4Cl)ncn3)cc2)CC1 [BGJ398] + Nc1ncn([C@H]2C[C@H](O)[C@@H](CO)O2)c(=O)n1 [Decitabine] (partner 2 µM)
Summary of the method: as §1

Row | Cell Line | relative viability ([1]; first compound 0.02 µM) | relative viability ([1]; first compound 0.06325 µM) | relative viability ([1]; first compound 0.2 µM) | relative viability ([1]; first compound 0.6325 µM) | relative viability ([1]; first compound 2 µM) | relative viability (BGJ398 + Crizotinib; first compound 0.01 µM) | relative viability (BGJ398 + Crizotinib; first compound 0.03162 µM) | relative viability (BGJ398 + Crizotinib; first compound 0.1 µM) | relative viability (BGJ398 + Crizotinib; first compound 0.3162 µM) | relative viability (BGJ398 + Crizotinib; first compound 1 µM) | relative viability ([2]; first compound 0.02 µM) | relative viability ([2]; first compound 0.06325 µM) | relative viability ([2]; first compound 0.2 µM) | relative viability ([2]; first compound 0.6325 µM) | relative viability ([2]; first compound 2 µM) | relative viability (BGJ398 + Decitabine; first compound 0.01 µM) | relative viability (BGJ398 + Decitabine; first compound 0.03162 µM) | relative viability (BGJ398 + Decitabine; first compound 0.1 µM) | relative viability (BGJ398 + Decitabine; first compound 0.3162 µM) | relative viability (BGJ398 + Decitabine; first compound 1 µM)
1 | 201T | 0.341 | 0.347 | 0.349 | 0.358 | 0.343 | 1.12 | 0.988 | 0.996 | 1.01 | 0.981 | 0.651 | 0.531 | 0.625 | 0.609 | 0.576 | 0.958 | 0.814 | 0.835 | 0.797 | 0.807
2 | HCC-44 | 0.866 | 0.946 | 1.03 | 0.969 | 0.919 | 0.751 | 0.738 | 0.86 | 0.817 | 0.701 | 0.885 | 1 | 1.02 | 1.01 | 1 | 0.886 | 0.914 | 0.959 | 0.976 | 0.8
3 | H3255 | 0.328 | 0.342 | 0.314 | 0.318 | 0.307 | 0.798 |  | 0.877 | 0.634 | 0.829 | 0.716 | 0.819 | 0.903 | 0.901 | 0.825 | 0.585 |  | 0.591 |  | 0.681
4 | NCI-H647 | 0.314 | 0.488 | 0.41 | 0.363 | 0.342 | 1.03 | 1.01 | 1.16 | 1.06 | 1.03 | 0.714 | 0.403 | 0.572 | 0.425 | 0.382 | 0.413 | 0.359 | 0.491 | 0.336 | 0.412
5 | NCI-H23 | 0.513 | 0.547 | 0.577 | 0.509 | 0.349 | 0.531 | 0.539 | 0.486 | 0.58 | 0.566 | 0.227 | 0.242 | 0.227 | 0.182 | 0.21 | 0.303 | 0.375 | 0.279 | 0.271 | 0.325
6 | NCI-H1944 | 0.287 | 0.289 | 0.352 | 0.312 | 0.331 | 0.994 | 1.07 | 1.13 | 1.09 | 1.19 | 0.52 | 0.448 | 0.535 | 0.403 | 0.437 | 0.401 | 0.404 | 0.448 | 0.43 | 0.48
7 | NCI-H460 | 0.168 | 0.107 | 0.176 | 0.2 | 0.122 | 0.59 | 0.861 | 1.02 | 0.892 | 0.826 | 0.581 | 0.438 | 0.576 | 0.621 | 0.456 | 0.418 | 0.515 | 0.592 | 0.53 | 0.438
8 | EKVX | 0.384 | 0.428 | 0.342 | 0.381 | 0.405 | 0.819 | 0.919 | 0.901 | 0.991 | 0.917 | 0.677 | 0.653 | 0.595 | 0.692 | 0.436 | 0.315 | 0.294 | 0.388 | 0.349 | 0.316
9 | NCI-H358 | 0.147 | 0.135 | 0.128 | 0.136 | 0.114 | 0.631 | 0.779 | 0.533 | 0.574 | 0.722 | 0.556 | 0.406 | 0.621 | 0.473 | 0.204 | 0.184 | 0.215 | 0.208 | 0.201 | 0.2
10 | EPLC-272H | 0.327 | 0.25 | 0.349 | 0.344 | 0.292 | 0.903 | 0.814 | 0.964 | 0.8 | 0.968 | 0.332 | 0.319 | 0.333 | 0.192 | 0.293 | 0.391 | 0.3 | 0.38 | 0.303 | 0.323
11 | NCI-H2126 | 0.329 | 0.404 | 0.358 | 0.369 | 0.339 | 1.12 | 1.01 | 0.997 | 0.955 | 1.05 | 0.886 | 1.16 | 0.952 | 0.937 | 0.581 | 0.608 | 0.601 | 0.611 | 0.612 | 0.566
12 | LXF-289 | 0.529 | 0.632 | 0.574 | 0.552 | 0.637 | 0.817 | 0.764 | 0.761 | 0.705 | 0.637 | 1.06 | 0.975 | 1.1 | 0.986 | 1.18 | 0.351 | 0.415 | 0.332 | 0.325 | 0.38
13 | NCI-H2405 | 0.517 | 0.585 | 0.528 | 0.512 | 0.436 | 0.838 | 0.906 | 0.911 | 0.919 | 0.849 | 0.824 | 0.924 | 0.762 | 0.722 | 0.428 | 0.703 | 0.74 | 0.81 | 0.734 | 0.741
14 | NCI-H1755 | 0.428 | 0.429 | 0.461 | 0.432 | 0.446 | 0.907 | 0.888 | 0.884 | 0.868 | 0.84 | 0.473 | 0.405 | 0.47 | 0.399 | 0.476 | 0.675 | 0.738 | 0.721 | 0.686 | 0.634
15 | HCC-78 | 0.471 | 0.475 | 0.483 | 0.535 | 0.423 | 0.379 | 0.313 | 0.394 | 0.334 | 0.348 | 0.681 | 0.567 | 0.684 | 0.732 | 0.202 | 0.616 | 0.701 | 0.682 | 0.777 | 0.695
16 | LOU-NH91 | 0.501 | 0.538 | 0.556 | 0.552 | 0.548 | 0.724 | 0.506 | 0.688 | 0.569 | 0.728 | 0.74 | 0.755 | 0.797 | 0.733 | 0.55 | 0.837 | 0.676 | 0.813 | 0.649 | 0.821
